Results on two compounds are retold here after patent US20050239805A1, “Mixtures of fused pyrimidinones and dinitrophenolic compounds useful for controlling powdery mildews” (priority 2002, published 2005).

Data set [1] concerns Erysiphe graminis f. sp. tritici. Kind of data set: Test A: preventive spray on wheat seedlings, wheat powdery mildew disease control. The class given is in vivo, Erysiphe graminis f. sp. tritici (wheat seedlings). The note with it: average of three replicates. The method, then:
The formulation containing a compound of component (1) is dissolved in water to form a stock solution. For testing component (1) individually the stock solution is diluted to the final desired concentration to form a test solution. For example, the compositions of component (1) (e.g., Compound 1 of Index Table A), either alone or in combination, are sprayed at 0.08 or 0.4 ppm to the point of run-off on the test plants, equivalent to a rate of 0.2 or 1 g/ha, respectively.
The commercially available formulation of component (2) (e.g. the Karathane® 19.5% wettable powder formulation of dinocap) is suspended in water to form a stock suspension. For testing component (2) individually the stock suspension is diluted to the final desired concentration to form a test suspension. For example, dinocap, either alone or in combination, is sprayed at 10, 40 or 200 ppm to the point of run-off on the test plants, equivalent to a rate of 25, 100 or 500 g/ha, respectively.
For testing combinations, the stock suspensions of the individual active ingredients prepared as above are then combined in the appropriate ratio, and diluted to the final desired concentration to form a test suspension.
The resulting test suspensions are then used in the following tests. Test suspensions are sprayed to the point of run-off on the test plants at the rates of active ingredient described below. The tests were replicated three times and the results reported as the average of the three replicates.
The test suspension was sprayed to the point of run-off on wheat seedlings. The following day the seedlings were inoculated with a spore dust of Erysiphe graminis f. sp. tritici, (the causal agent of wheat powdery mildew) and incubated in a growth chamber at 20° C. for 8 days, after which disease ratings were made.
Results for Test A are given in Table A. In the table, a rating of 100 indicates 100% disease control and a rating of 0 indicates no disease control (relative to the controls). Columns labeled Observed Disease Control indicates the average of three replications. Columns labeled Expected Disease Control indicate the expected value for each treatment mixture using the Colby equation.

Consider “2,6-dinitro-4-octylphenyl crotonates and 2,4-dinitro-6-octylphenyl crotonates [Dinocap]”, for which the “Observed Disease Control” value in data set [1] (application rate 10 ppm, rated after 8 days) was 45%; in data set [1] (application rate 40 ppm, rated after 8 days), 76%; in data set [1] (application rate 200 ppm, rated after 8 days), 98%.
The compound `CCCOc1nc2ccc(I)cc2c(=O)n1CCC` [Compound 1, 6-iodo-3-propyl-2-propyloxy-4(3H)-quinazolinone] showed a melting point of 48 to 49 °C. In addition, the “Observed Disease Control” value in data set [1] (application rate 0.08 ppm, inoculated day after spray, rated after 8 days at 20° C.) is 80%. In data set [1] (application rate 0.4 ppm, rated after 8 days), the “Observed Disease Control” value was 99%.

For orientation: melting point means the temperature of the solid-liquid transition.
